Experimental data from patent US20240318160A1 (Wisconsin Alumni Research Foundation, priority 2023, published 2024).
Values joined by “and” are separate entries in the source; they are usually repeats but may differ in a detail not shown here. Equal values may be shown once.

Columns and labels:
Type in all cases: biochemical
[1] = tested on: Joinvillea ascendens JaPAL (SEQ ID NO: 28) variant JaPAL^F140H_MUT16 (F140H plus PTAL-type residues at 70, 102, 110, 112, 121, 129, 135, 138, 267, 271, 279 …); experiment: TAL and PAL enzyme kinetics; conditions: PAL assay (L-Phe), pH 8.5, 30° C.
Description: (§1) To investigate the potential role of these residues in TAL activity, we generated two JaPAL mutant enzymes, one with PTAL-type substitutions in the 8 circle residues and the other with PTAL-type substitutions in both the circle and triangle residues (Table 4) in addition to the F140H mutation (JaPAL^F140H_MUT8 and JaPAL^F140H_MUT16, respectively).
(§2) A mixture containing 100 mM Tris-HCl (pH 8.5), 1% glycerol, and purified enzyme in a total volume of 50 μl was preincubated for 3 min at 30° C. […] The reactions were terminated by addition of 6N acetic acid (10 μl).
(§3) The kinetic parameters of the recombinant enzymes were determined using HPLC. Reaction mixtures containing 100 mM Tris-HCl (pH 8.5), 1% glycerol, and purified enzyme (0.15 μg for PAL assay and 1 μg for TAL assay) in a 50 μl total volume were preincubated for 3 min at 30° C. […] After 10 min and 20 min incubations for PAL and TAL assay, respectively, at 30° C., the reaction was terminated by addition of 6N acetic acid (10 μl). […] The products were quantified using calibration curves generated using authentic standards. Non-linear hyperbolic regression analyses were conducted using the Excel Solver tool to calculate Km and Vmax values.

[2] = tested on: Joinvillea ascendens JaPAL (SEQ ID NO: 28) variant JaPAL^F140H_MUT8 (F140H plus PTAL-type residues at 102, 112, 121, 138, 267, 444, 448, 500); experiment: TAL and PAL enzyme kinetics
Description: as §1, §2, §3

[3] = tested on: Joinvillea ascendens JaPAL^F140H_MUT8 variant G121A; experiment: TAL and PAL enzyme kinetics; conditions: PAL assay (L-Phe), pH 8.5, 30° C.
Description: (§4) To determine which of the 8 circle residues are essential in the conversion of PAL enzymes to PTAL enzymes (FIG. 3C), we mutated, one by one, each one of these 8 residues back to the PAL type in JaPAL^F140H_MUT8 and determined their effects on catalytic efficiency.
as §2, §3

[4] = tested on: Joinvillea ascendens JaPAL^F140H_MUT8 variant V500I; experiment: TAL and PAL enzyme kinetics; conditions: PAL assay (L-Phe), pH 8.5, 30° C.
Description: as §4, §2, §3

[5] = tested on: Joinvillea ascendens JaPAL^F140H_MUT8 variant T444P; experiment: TAL and PAL enzyme kinetics; conditions: PAL assay (L-Phe), pH 8.5, 30° C.
Description: as §4, §2, §3

[6] = tested on: Joinvillea ascendens JaPAL^F140H_MUT8 variant A448S; experiment: TAL and PAL enzyme kinetics; conditions: PAL assay (L-Phe), pH 8.5, 30° C.
Description: as §4, §2, §3

[7] = tested on: Joinvillea ascendens JaPAL^F140H_MUT8 variant I122S (in Table 3; I112S in text); experiment: TAL and PAL enzyme kinetics; conditions: PAL assay (L-Phe), pH 8.5, 30° C.
Description: as §4, §2, §3

[8] = tested on: Joinvillea ascendens JaPAL^F140H_MUT8 variant L138I; experiment: TAL and PAL enzyme kinetics; conditions: PAL assay (L-Phe), pH 8.5, 30° C.
Description: as §4, §2, §3

[9] = tested on: Joinvillea ascendens JaPAL^F140H_MUT8 variant S267A; experiment: TAL and PAL enzyme kinetics; conditions: PAL assay (L-Phe), pH 8.5, 30° C.
Description: as §4, §2, §3

[10] = tested on: Joinvillea ascendens JaPAL^F140H_MUT8 variant I102V; experiment: TAL and PAL enzyme kinetics; conditions: PAL assay (L-Phe), pH 8.5, 30° C.
Description: as §4, §2, §3

[11] = tested on: PTAL^H140F mutants (SbPTAL^H123F, BdPTAL^H123F, SaPTAL-a^H118F, SaPTAL-b^H126F, EmoPTAL^H127F, JaPTAL^H125F); experiment: TAL and PAL enzyme kinetics, group of enzymes; conditions: on average
Source text: To experimentally test the role of His 140 in the acquisition of TAL activity, we next conducted site-directed mutagenesis on the PAL and PTAL enzymes of grasses and non-grass graminids characterized above and analyzed their effects on TAL activity. For the PAL enzymes, the residue corresponding to Phe 140 was converted to His to generate JaPAL^F140H EmoPAL^F134H, BdPAL^F137H, and SbPAL^F135H. […] For the PTAL enzymes, the residue corresponding to His 140 was converted to Phe to generate SbPTAL^H123F, BdPTAL^H123F, SaPTAL-a^H118F, SaPTAL-b^H126F, EmoPTAL^H127F, and JaPTAL^H125F. […] Thus, unlike in the bacterial TAL enzyme (Watts et al., 2006), other residues besides the His 140 are likely important for the acquisition of strong TAL activity in the PTAL enzymes of grasses and closely-related non-grass graminids.
The kinetic parameters of the recombinant enzymes were determined using HPLC. Reaction mixtures containing 100 mM Tris-HCl (pH 8.5), 1% glycerol, and purified enzyme (0.15 μg for PAL assay and 1 μg for TAL assay) in a 50 μl total volume were preincubated for 3 min at 30° C. PAL and TAL reactions were started by addition of 50 μl substrate solution prepared with 0-4 mM L-Phe and 0-2 mM L-Tyr. After 10 min and 20 min incubations for PAL and TAL assay, respectively, at 30° C., the reaction was terminated by addition of 6N acetic acid (10 μl). […] The products were quantified using calibration curves generated using authentic standards. Non-linear hyperbolic regression analyses were conducted using the Excel Solver tool to calculate Km and Vmax values.

[12] = tested on: Joinvillea ascendens JaPAL variant F140H (JaPAL^F140H), SEQ ID NO: 259; experiment: TAL and PAL enzyme kinetics; conditions: PAL assay (L-Phe), pH 8.5, 30° C.
Description: as §2, §3

[13] = tested on: Joinvillea ascendens JaPTAL, wild type, SEQ ID NO: 27; experiment: TAL and PAL enzyme kinetics; conditions: PAL assay (L-Phe), pH 8.5, 30° C.
Description: as §2, §3

[14] = tested on: Joinvillea ascendens JaPAL, wild type, SEQ ID NO: 28; experiment: TAL and PAL enzyme kinetics; conditions: PAL assay (L-Phe), pH 8.5, 30° C.
Description: as §2, §3

[15] = PAL assay (L-Phe), pH 8.5, 30° C.

`N[C@@H](Cc1ccccc1)C(=O)O` [L-Phe, phenylalanine] gave a Km [1] of 455 ± 4.6 µM, a kcat [1] of 0.46 ± 0.01 s⁻¹ and a kcat/Km [1] of 1010 ± 0 M⁻¹ s⁻¹. The “Km for Phe relative to wild-type JaPTAL” value ([2]; PAL activity, higher than JaPTAL) was 2 fold, the Km [2, 15] was 141 ± 6.3 µM and the kcat [2, 15] was 0.60 ± 0.01 s⁻¹. It also gave a kcat/Km [2, 15] of 4250 ± 220 M⁻¹ s⁻¹, a Km [3] of 58.1 ± 3.4 µM and a kcat [3] of 0.57 ± 0.02 s⁻¹. For the same compound, the kcat/Km [3] was 9880 ± 310 M⁻¹ s⁻¹, the Km [4] was 151 ± 3.7 µM and the kcat [4] was 0.82 ± 0.02 s⁻¹. It also gave a kcat/Km [4] of 5450 ± 140 M⁻¹ s⁻¹, a Km [5] of 192 ± 3.6 µM and a kcat [5] of 0.90 ± 0.05 s⁻¹. The kcat/Km [5] was 4700 ± 220 M⁻¹ s⁻¹, the Km [6] was 168 ± 11.3 µM and the kcat [6] was 0.80 ± 0.03 s⁻¹. It also gave a kcat/Km [6] of 4790 ± 430 M⁻¹ s⁻¹, a Km [7] of 2290 ± 344 µM and a kcat [7] of 0.29 ± 0.04 s⁻¹. It also gave a kcat/Km [7] of 310 ± 0 M⁻¹ s⁻¹, a Km [8] of 74.3 ± 1.1 µM and a kcat [8] of 0.66 ± 0.01 s⁻¹. The kcat/Km [8] was 8860 ± 10 M⁻¹ s⁻¹, the Km [9] was 317 ± 6.6 µM and the kcat [9] was 0.85 ± 0.04 s⁻¹. For the same compound, the kcat/Km [9] was 2670 ± 60 M⁻¹ s⁻¹, the Km [10] was 232 ± 3.5 µM and the kcat [10] was 0.74 ± 0.01 s⁻¹. The kcat/Km [10] was 3190 ± 80 M⁻¹ s⁻¹, the “kcat relative to wild type” value ([11]; PAL activity (Phe)) was 0.25 fold and the “Km toward Phe relative to corresponding wild-type enzymes” value ([11]; PAL activity) was 0.04 fold. For the same compound, the Km [12] was 697 ± 169 µM, the kcat [12] was 0.60 ± 0.04 s⁻¹ and the kcat/Km [12] was 890 ± 180 M⁻¹ s⁻¹. For the same compound, the Km [13] was 66 µM and 65.6 µM, the kcat [13] was 0.5 s⁻¹ and 0.45 ± 0.02 s⁻¹ and the kcat/Km [13] was 6800 ± 180 M⁻¹ s⁻¹. The Km [14] was 24 µM and 24.4 µM, the kcat [14] was 1.9 s⁻¹ and 1.92 ± 0.01 s⁻¹ and the kcat/Km [14] was 78600 ± 0 M⁻¹ s⁻¹.
